Measured values published in PubChem BioAssay (NCI).
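GI50: concentration for 50% inhibition of growth. TGI denotes the concentration required for complete inhibition of growth.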

Assays:
Assay in all cases: NCI-60 cell line screen, 384-well format
[1] = tested on: 786-0 renal
[2] = tested on: COLO 205 colon
[3] = tested on: HCT-116 colon
[4] = tested on: IGROV1 ovarian
[5] = tested on: SNB-75 CNS
[6] = tested on: HOP-92 NSCLC
[7] = tested on: SK-OV-3 ovarian
[8] = tested on: SK-MEL-28 melanoma
[9] = tested on: MALME-3M melanoma
[10] = tested on: RXF 393 renal
[11] = tested on: KM12 colon
[12] = tested on: MOLT-4 leukemia
[13] = tested on: OVCAR-8 ovarian

Question: Which GI50 [1] does the source give for `CCNC(=O)c1cc2c(-c3cc(C(C)(C)O)ccc3Oc3c(C)cc(F)cc3C)cn(C)c(=O)c2[nH]1` here?
Answer: The GI50 was 1.24 µM.

Question: What about the TGI [1] of the same compound?
Answer: Its TGI is 12.3 µM.

Question: What about the GI50 [2] of the same compound?
Answer: The GI50 was 1.1 µM.

Question: And the TGI [2]?
Answer: The TGI was 2.75 µM.

Question: What about the GI50 [3] of the same compound?
Answer: Its GI50 is 1.37 µM.

Question: And the TGI [3]?
Answer: Its TGI is 10.3 µM.

Question: And the GI50 [4]?
Answer: Its GI50 is 0.508 µM.

Question: And the TGI [4]?
Answer: The TGI was 2.29 µM.

Question: And the GI50 [5]?
Answer: Its GI50 is 1.5 µM.

Question: What about the TGI [5] of the same compound?
Answer: The TGI was 10.3 µM.

Question: What about the GI50 [6] of the same compound?
Answer: Its GI50 is 1.43 µM.

Question: And the TGI [6]?
Answer: Its TGI is 11.8 µM.

Question: And the GI50 [7]?
Answer: The GI50 was 0.412 µM.

Question: And the TGI [7]?
Answer: The TGI was 3.74 µM.

Question: And the GI50 [8]?
Answer: Its GI50 is 2.96 µM.

Question: What about the TGI [8] of the same compound?
Answer: Its TGI is 15.9 µM.

Question: What about the GI50 [9] of the same compound?
Answer: The GI50 was 1.15 µM.

Question: And the TGI [9]?
Answer: The TGI was 3.36 µM.

Question: What about the GI50 [10] of the same compound?
Answer: The GI50 was 1.22 µM.

Question: What about the TGI [10] of the same compound?
Answer: Its TGI is 3.55 µM.

Question: What about the GI50 [11] of the same compound?
Answer: The GI50 was 1.42 µM.

Question: And the TGI [11]?
Answer: Its TGI is 11.2 µM.

Question: What about the GI50 [12] of the same compound?
Answer: Its GI50 is 0.432 µM.

Question: What about the TGI [12] of the same compound?
Answer: Its TGI is 1.9 µM.

Question: What about the GI50 [13] of the same compound?
Answer: Its GI50 is 1.12 µM.

Question: And the TGI [13]?
Answer: Its TGI is 2.55 µM.
